Earlier results on 1 compound are cited in patent US20080081052A1, “Topical compositions containing solubilized allantoin and related methods” (priority 2006, published 2008).

For this series the following is noted: expressed in g/100 g water @ 25 degree C; no solubilization enhancer.

Take `NC(=O)NC1NC(=O)NC1=O` (stereo not shown) [allantoin, (2,5-dioxo-4-imidazolidinyl) urea]: the “solubility of allantoin in water” value is 0.45%.
